# From US20210205336A1, “Storage-stable ready-to-use formulations of Tigecycline” (RK Pharma Solutions LLC, priority 2019, published 2021)
# “And” between values parts separate entries of the source, which are not always exact repeats. Identical values can stand only once.
# Assay: Storage stability (purity and impurity profile) of ready-to-use tigecycline formulations at refrigeration, 2-8° C.
# Format: physicochemical
# Design: Tricyclic Impurity / Max. Unk Imp. / Oxo Impurity / Epimer Impurity / Total Impurity: unit not given here
# Procedure: As used herein, and unless otherwise specified, the term “storage-stable” refers to any tigecycline-containing composition or formulation having sufficient physical and chemical stability to allow storage at a convenient temperature, such as between about 0° C. and about 50° C., for a commercially reasonable period of time. The phrase “physical stability” refers to maintenance of colour or colourless state, dissolved oxygen level, head space oxygen level and particulate matter and the phrase “chemical stability” relates to formation of drug-related impurities in terms of total impurities, single maximum individual impurity, or maximum individual unknown impurity. For pharmaceutical products, stability is required for commercially relevant times after manufacturing, such as for about 6, 12, 18, 24, or 36 months, during which time a product is kept in its original packaging under specified storage conditions. Solution A and Solution B were then further nitrogen purged for another 30 minutes and closed tightly after nitrogen flushing and covered with black cover. Solution A and solution B were stored in refrigerator (2-8° C.) for 02 hours. 100 mg tigecycline was charged in solution B followed by the addition of solution B to solution A while the solution A was kept at ice bath (e.g., about 0° C.). Now, the total 100 ml solution in the infusion bag was nitrogen purged for another 15 minutes and sealed after nitrogen flushing and stored at refrigerator (2-8° C.). […] Calcium chloride 60 mg and sodium bisulfite 2.5 mg were dissolved in 3 ml 5% dextrose for injection. The volume was made up to 5 ml with 5% dextrose solution. The solution was then nitrogen purged until dissolved oxygen reached <0.1 mg/L. 50 mg tigecycline was transferred into an amber color vial and then the 5 ml of the above solution was poured in the vial under nitrogen. The headspace of the vial was flushed through with nitrogen and packed. The vials were stored at refrigeration condition. Calcium chloride 60 mg and sodium bisulfite 2.5 mg were dissolved in 3 ml 5% dextrose. pH was adjusted to 5.5-6.0 pH range using 0.1 M meglumine solution, as required. The volume was made up to 5 ml with 5% dextrose solution. The solution was then nitrogen purged until dissolved oxygen reached <0.1 mg/L. 50 mg tigecycline was transferred into an amber colour vial and then the 5 ml of the above solution was poured in the vial under nitrogen. The headspace of the vial was flushed through with nitrogen and packed. The vials were stored at refrigeration condition. Calcium chloride 60 mg and sodium bisulfite 2.5 mg were dissolved in 3 ml 5% dextrose. pH was adjusted to 4.5-5.0 pH range using 0.1 M meglumine solution, as required. The volume was made up to 5 ml with 5% dextrose solution. The solution was then nitrogen purged until dissolved oxygen reached <0.1 mg/L. 50 mg tigecycline was transferred into an amber colour vial and then the 5 ml of the above solution was poured in the vial under nitrogen. The headspace of the vial was flushed through with nitrogen and packed. The vials were stored at refrigeration condition. Calcium chloride 60 mg and sodium bisulfite 2.5 mg were dissolved in 3 ml 0.9% NaCl Solution. The volume was made up to 5 ml with 0.9% NaCl Solution. […]
# [1] = API (tigecycline before formulation)
smiles,measurement,setting,value
"CN(C)c1cc(NC(=O)CNC(C)(C)C)c(O)c2c1C[C@H]1C[C@H]3[C@H](N(C)C)C(=O)/C(=C(\N)O)C(=O)[C@@]3(O)C(=O)C1=C2O [API, (4S,4aS,5aR,12aS)-9-[2-(tert-butylamino)acetamido]4,7-bis(dimethylamino)-1,4,4a,5,5a,6,11,12a-octahydro-3,10,12,12a-tetrahydroxy-1,11dioxo-2-naphthacenecarboxamide]",% Purity,[1],99.22% and 99.2% and 99.18%
same,Epimer Impurity,[1],0.5 and 0.48 and 0.49
same,Max. Unk Imp.,[1],0.05 and 0.04
same,Oxo Impurity,[1],0.02
same,Tricyclic Impurity,[1],0.03 and 0.04 and 0.05
same,Purity,"API (tigecycline before formulation), Tables 4A-9A",99.3
same,Rel. Comp. B,"API (tigecycline before formulation), in % (unit assumed)",0.01 and 0.02
same,Total Impurity,"API column, Day 1 (tigecycline before formulation)",0.82
